Data from US20110200527A1, “Peptide Ligand Directed Drug Delivery” (Shanghai Jiaotong University, priority 2007, published 2011).
In brackets after ≈: the same amount, converted by molar mass.

Tests used:
H1299 cells = test: MTT cell killing assay, H1299; format: cell-based; conditions: Homo sapiens, NCI-H1299, H1299, 2 hours exposure, then 48 hours growth, read-out: calculated IC50
Procedure: (§1) H1299 and SPCA1 cells were plated at the density of 10^4 cells/well in 96-well plates and grown overnight. […] The cells were then washed with fresh medium, and let grown for another 48 hours. The cell viabilities after different treatments were determined using a MTT assay (26).

SPCA1 cells = test: MTT cell killing assay, SPCA1; format: cell-based; conditions: Homo sapiens, SPCA1, 2 hours exposure, then 48 hours growth, read-out: calculated IC50
Procedure: as §1

H-460 cells = test: FACS analysis of liposome binding by doxorubicin fluorescence; format: cell-based; conditions: 0.01 to 10 μg/ml doxorubicin, FIG. 8
Procedure: H-460 cells were grown in cell culture plate under sterile conditions and harvested by scraping. The liposome samples (empty Thermodox liposome, ThermoDox, D4-ThermoDox, D4*-ThermoDox where D4 ThermoDox comprises SEQ ID NO:1 and D4*ThermoDox comprises SEQ ID NO:2) and doxorubicin hydrochloride were added and incubated at 37° C. with H-460 cells for 4 hours. Two different liposomes comprising different amounts of the peptide of the invention (D4-ThermoDox) were tested. The two liposomes were designated D4-ThermoDox2+2, which comprised DPPC:MSPC: DSPE-MPEG2000:D4-DSPE-MPEG2000 in a 90:10:2:2 molar ratio and D4-ThermoDox4+4, which comprised DPPC:MSPC: DSPE-MPEG2000:D4-DSPE-MPEG2000 in a 90:10:4:4 molar ratio. The D4*-ThermoDox comprised DPPC:MSPC: DSPE-MPEG2000:D4*-DSPE-MPEG2000 in a 90:10:2:2 molar ratio. After incubation, the cells were washed 4 times with PBS, and counted by FACS using doxorubicin fluorescence (excitation at 488 nm, and emission at 575 nm).
The following groups were examined: a. Non-treatment control; b. ThermoDox at approx. 0.01-10 μg (doxorubicin)/mL; c. D4-ThermoDox2+2 at approx. 0.01-10 μg (doxorubicin)/mL; d. D4-ThermoDox4+4 at approx. 0.01-10 μg (doxorubicin)/mL; e. D4*-ThermoDox at approx. 0.01-10 μg (doxorubicin)/mL; and f. doxorubicin hydrochloride 0.01-10 μg. […]

H1299 tumor bearing mice = test: In vivo fluorescence imaging of Cy5.5 labeled peptides; conditions: tail vein injection, 1 to 6 hours after injection
Procedure: Both H1299 and SPCA1 xenograft mouse models were prepared by the animal experimental center of Shanghai Cancer Institute. They were used in the in vivo imaging experiments about 3˜4 weeks after tumor cell inoculation (tumor size about 5-7 mm diameter), and humanely sacrificed afterwards. The animal study protocols were approved by the Animal Study Committee of Shanghai Jiaotong University, School of Pharmacy.
At various time points afterwards, the mice were anesthetized and imaged with an Optix in vivo fluorescence imaging system (GE Healthcare). Excepted for the Cy5.5 dye only control, all the other groups contained at least 3 mice. The representative images from the same most representative mouse in each group were shown. The images had been processed using the fluorescence lifetime gating for Cy5.5 (0.8-1.1 ns) to remove most autofluorescent interferences.
Cy5.5 fluorescence distributions inside the mice were imaged at various time points after injection. In all groups including the free dye control, fluorescences were first seen all over the body, and then quickly afterwards in the kidney and bladder. […] But in LARLLT-Cy5.5 injected mice, between 1 to 6 hours after injection, fluorescence signals in the tumor tissue were much stronger, as compared to the surrounding tissues.

[1] = molecular target: epidermal growth factor receptor (EGFR) on EGFR high-expressing human lung cancer cells (H1299, SPCA1) (human, UniProt P00533 25-1210); test: cell-based or functional assay

## COc1cccc2c1C(=O)c1c(O)c3c(c(O)c1C2=O)C[C@@](O)(C(=O)CO)C[C@@H]3O[C@H]1C[C@H](N)[C@H](O)[C@H](C)O1 [free doxorubicin, doxorubicin]
H1299 cells
  IC50: 5.7 µg/mL (≈ 10.5 µM)
SPCA1 cells
  IC50: 2 µg/mL (≈ 3.68 µM)
H-460 cells
  doxorubicin uptake (mean fluorescence intensity): highest

## Cy5.5
H1299 tumor bearing mice
  fluorescence signal in the tumor region: the same as background

B1: control peptide modified liposomes (scrambled peptide RTALLL conjugated to DSPE-PEG2000, inserted into preformed liposomes) (peptide)
peptide: RTALLL
modifications: peptide thiolated with SPDP, reduced with TCEP and coupled to the maleimide of DSPE-PEG2000-Mal; the lipid conjugate is inserted into liposomes
[1]
  IC50 of cell killing (MTT), doxorubicin liposomes, H1299 cells: 85 µg/mL
  IC50 of cell killing (MTT), doxorubicin liposomes, SPCA1 cells: 15 µg/mL
